The source made the active and inactive calls. No rule for the calls is given here.

This is an account of results in PubChem BioAssay AID743476 (The Scripps Research Institute Molecular Screening Center, 2014).

The experiment deals with CCHF-vOTU. The experiment can be described thus: PubChem AID 743476. The conditions noted are these: Recombinant CCHFV vOTU, PEP-AMC fluorescence cleavage, with PEP-AMC substrate, hits give high values.

Usually inhibition stands for the relative decrease from the control value, in per cent. As to `Cc1c(Cl)cnc(NC(=O)COC(=O)c2ccc([N+](=O)[O-])s2)c1Cl`, the inhibition is, setting by setting: (Assay 1, at 7.08 µM) 9.06% (inactive); (Assay 2, at 7.08 µM) 5.86% (inactive); (Assay 3, at 14.16 µM) 14.2% (inactive).

Consider `O=C(/C=C/c1ccc(O)cc1)c1ccc(NC2=C(N3CCCCC3)C(=O)c3ccccc3C2=O)cc1`, for which the inhibition is 14.3% (inactive) (Assay 1, at 3.35 µM); 16.3% (inactive) (Assay 2, at 3.35 µM); 33.6% (Assay 3, at 6.7 µM).
